As usually defined, the inhibition is the drop in the measured response relative to a control, in per cent.

SMILES strings stand for the structures. Substitutions are numbered along the chain they refer to.

Holding throughout (test): ethidium dye uptake in transfected N2a cells
Holding throughout (assay type): cell-based

The target of test [1] is T1, drPanx1a (Danio rerio, UniProt A0A8M1PG01).
T1 construct: gene panx1a; full length aa 1-417 (natural Cys at position 76), C-terminal EYFP fusion (pEYFP-N1), transient in mouse N2a cells
T1 sequence (A0A8M1PG01 1-417): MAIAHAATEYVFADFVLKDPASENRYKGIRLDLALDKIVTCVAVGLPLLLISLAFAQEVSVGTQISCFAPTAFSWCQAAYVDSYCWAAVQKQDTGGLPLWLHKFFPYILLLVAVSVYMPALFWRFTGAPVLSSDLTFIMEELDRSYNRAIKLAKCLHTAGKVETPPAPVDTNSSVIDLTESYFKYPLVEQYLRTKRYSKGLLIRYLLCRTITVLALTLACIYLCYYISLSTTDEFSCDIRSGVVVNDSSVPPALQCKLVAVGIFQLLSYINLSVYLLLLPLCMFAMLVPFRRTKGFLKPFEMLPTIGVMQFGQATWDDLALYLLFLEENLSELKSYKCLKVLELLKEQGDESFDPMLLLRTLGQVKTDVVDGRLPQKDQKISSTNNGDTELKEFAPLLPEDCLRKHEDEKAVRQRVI

The target in test [2] is T2, drPanx1a (Danio rerio, UniProt A0A8M1PG01, C76E).
T2 construct: gene panx1a; full length aa 1-417 (natural Cys at position 76), C-terminal EYFP fusion (pEYFP-N1), transient in mouse N2a cells
T2 sequence (A0A8M1PG01 1-417 C76E): T1 sequence (A0A8M1PG01 1-417) with C76E
To be noted: 3 mM ATP, 20 uM EtBr, 5 min, pH 7.4; endogenous Panx1 and P2X7-R in N2a host.

The target in test [3] is T3, drPanx1b (Danio rerio, UniProt F1QSR7, H238Y).
T3 construct: gene panx1b; full length aa 1-422, C-terminal EYFP fusion (pEYFP-N1), transient in mouse N2a cells
T3 sequence (F1QSR7 1-422 H238Y): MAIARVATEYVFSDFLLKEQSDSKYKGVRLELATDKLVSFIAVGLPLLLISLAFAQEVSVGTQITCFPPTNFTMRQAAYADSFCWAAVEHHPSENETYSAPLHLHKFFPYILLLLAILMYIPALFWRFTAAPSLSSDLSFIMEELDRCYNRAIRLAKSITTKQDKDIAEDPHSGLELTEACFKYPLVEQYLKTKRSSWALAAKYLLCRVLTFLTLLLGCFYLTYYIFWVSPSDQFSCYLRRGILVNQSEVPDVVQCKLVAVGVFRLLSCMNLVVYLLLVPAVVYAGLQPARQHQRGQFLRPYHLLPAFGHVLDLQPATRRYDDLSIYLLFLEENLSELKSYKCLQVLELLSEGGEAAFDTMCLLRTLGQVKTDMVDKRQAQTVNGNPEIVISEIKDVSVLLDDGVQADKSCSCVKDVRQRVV

In test [4] the target is T4, drPanx1b (Danio rerio, UniProt F1QSR7, R75A/H238Y).
T4 construct: gene panx1b; full length aa 1-422, C-terminal EYFP fusion (pEYFP-N1), transient in mouse N2a cells
T4 sequence (F1QSR7 1-422 R75A/H238Y): T3 sequence (F1QSR7 1-422 H238Y) with R75A
To be noted: 500 uM ATP, 20 uM EtBr, 5 min, pH 7.4; endogenous Panx1 and P2X7-R in N2a host.

In test [5] the target is T5, mPanx1 (Mus musculus, UniProt Q9JIP4).
T5 construct: gene Panx1; full length aa 1-426, C-terminal EYFP fusion (pEYFP-N1), transient in mouse N2a cells
To be noted: 20 uM EtBr, 5 min, pH 7.4; channel permeant dye.

The target in test [6] is T5, mPanx1. Particulars: read-out: % inhibition at 100 uM.
The target in test [7] is T6, drPanx1b (Danio rerio, UniProt F1QSR7, R75C/H238Y).
T6 construct: gene panx1b; full length aa 1-422, C-terminal EYFP fusion (pEYFP-N1), transient in mouse N2a cells
T6 sequence (F1QSR7 1-422 R75C/H238Y): T3 sequence (F1QSR7 1-422 H238Y) with R75C
Particulars: 100 uM BBG, 20 uM EtBr, 5 min, pH 7.4; endogenous Panx1 and P2X7-R in N2a host.

Test [8] has as its target T7, drPanx1b (Danio rerio, UniProt F1QSR7, R75E/H238Y).
T7 construct: gene panx1b; full length aa 1-422, C-terminal EYFP fusion (pEYFP-N1), transient in mouse N2a cells
T7 sequence (F1QSR7 1-422 R75E/H238Y): T3 sequence (F1QSR7 1-422 H238Y) with R75E
Particulars: 100 uM BBG, 20 uM EtBr, 5 min, pH 7.4; endogenous Panx1 and P2X7-R in N2a host.

The target in test [9] is T8, drPanx1b (Danio rerio, UniProt F1QSR7, R75K/H238Y).
T8 construct: gene panx1b; full length aa 1-422, C-terminal EYFP fusion (pEYFP-N1), transient in mouse N2a cells
T8 sequence (F1QSR7 1-422 R75K/H238Y): T3 sequence (F1QSR7 1-422 H238Y) with R75K
Particulars: 100 uM BBG, 20 uM EtBr, 5 min, pH 7.4; endogenous Panx1 and P2X7-R in N2a host.

Test [10] deals with T9, drPanx1a (Danio rerio, UniProt A0A8M1PG01, C76R).
T9 construct: gene panx1a; full length aa 1-417 (natural Cys at position 76), C-terminal EYFP fusion (pEYFP-N1), transient in mouse N2a cells
T9 sequence (A0A8M1PG01 1-417 C76R): T1 sequence (A0A8M1PG01 1-417) with C76R
To be noted: 100 uM BBG, 20 uM EtBr, 5 min, pH 7.4; endogenous Panx1 and P2X7-R in N2a host.

For test [11], the target named is T2, drPanx1a. Particulars: 100 uM BBG, 20 uM EtBr, 5 min, pH 7.4; endogenous Panx1 and P2X7-R in N2a host.
Test [12] has as its target T4, drPanx1b. Particulars: 100 uM BBG, 20 uM EtBr, 5 min, pH 7.4; endogenous Panx1 and P2X7-R in N2a host.
Test [13] deals with T10, drPanx1a (Danio rerio, UniProt A0A8M1PG01, C76A).
T10 construct: gene panx1a; full length aa 1-417 (natural Cys at position 76), C-terminal EYFP fusion (pEYFP-N1), transient in mouse N2a cells
T10 sequence (A0A8M1PG01 1-417 C76A): T1 sequence (A0A8M1PG01 1-417) with C76A
Particulars: 100 uM BBG, 20 uM EtBr, 5 min, pH 7.4; endogenous Panx1 and P2X7-R in N2a host.

Test [14] addresses T11, drPanx1a (Danio rerio, UniProt A0A8M1PG01, C76K).
T11 construct: gene panx1a; full length aa 1-417 (natural Cys at position 76), C-terminal EYFP fusion (pEYFP-N1), transient in mouse N2a cells
T11 sequence (A0A8M1PG01 1-417 C76K): T1 sequence (A0A8M1PG01 1-417) with C76K
Particulars: 100 uM BBG, 20 uM EtBr, 5 min, pH 7.4; endogenous Panx1 and P2X7-R in N2a host.

T5 sequence (Q9JIP4 whole entry, the tested form may be a part): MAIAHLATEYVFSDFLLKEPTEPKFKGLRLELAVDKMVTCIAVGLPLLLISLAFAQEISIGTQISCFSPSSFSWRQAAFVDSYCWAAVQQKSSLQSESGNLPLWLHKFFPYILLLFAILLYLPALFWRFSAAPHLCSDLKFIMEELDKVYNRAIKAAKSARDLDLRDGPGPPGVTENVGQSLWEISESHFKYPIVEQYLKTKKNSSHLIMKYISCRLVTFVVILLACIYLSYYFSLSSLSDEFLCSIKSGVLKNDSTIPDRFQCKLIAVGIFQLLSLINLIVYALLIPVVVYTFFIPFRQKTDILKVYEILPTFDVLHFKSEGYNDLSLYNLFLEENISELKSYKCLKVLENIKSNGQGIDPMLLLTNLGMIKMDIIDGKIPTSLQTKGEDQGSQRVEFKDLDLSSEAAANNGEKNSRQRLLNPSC

`Nc1ncnc2c1ncn2[C@@H]1O[C@H](COP(=O)(O)OP(=O)(O)OP(=O)(O)O)[C@@H](O)[C@H]1O` [ATP]: the inhibition at 3000 µM in [1] (read-out: % inhibition at 3 mM) was 20.2 ± 2.2%. Also, in test [2], the “% inhibition at 3 mM” value is recorded as “ATP: drPanx1a-C76E > C76A ≥ WT”. For the same compound, in test [3], the inhibition at 500 µM turned out to be 27.3 ± 1.9%. The “% inhibition at 500 uM” value in test [4] was “drPanx1b WT ≥ R75K ≥ R75C > R75E ≥ R75A”.
As to `CC[n+]1c(-c2ccccc2)c2cc(N)ccc2c2ccc(N)cc21` [Ethidium bromide], the “ethidium dye uptake in transfected N2a cells” value in [5] is on record as “EtBr uptake was significantly increased in mPanx1”.
In the case of `CCOc1ccc(Nc2ccc(C(=C3C=CC(=[N+](CC)Cc4cccc(S(=O)(=O)[O-])c4)C=C3C)c3ccc(N(CC)Cc4cccc(S(=O)(=O)O)c4)cc3C)cc2)cc1` [brilliant blue G], the inhibition at 100 µM was determined as 33.4 ± 1.7% in [1], 40.6 ± 1.4% in test [6] and 64.1 ± 1% in test [3]. Moreover, the “% inhibition at 100 uM” value is reported as “drPanx1b WT > R75C > R75K ≥ R75A ≥ R75E” in [7]; “drPanx1b WT > R75C > R75K ≥ R75A ≥ R75E” in test [8]; “drPanx1b WT > R75C > R75K ≥ R75A ≥ R75E” in test [9]; “BBG: drPanx1a-C76R > C76K > WT” in test [10]; “BBG: drPanx1a-C76R > C76K > WT ≥ C76A > C76E” in test [11]; “drPanx1b WT > R75C > R75K ≥ R75A ≥ R75E” in test [12]. The entries for the “% inhibition at 100 uM” value in test [13] and in test [14] were “BBG: drPanx1a-C76R > C76K > WT ≥ C76A > C76E” and “BBG: drPanx1a-C76R > C76K > WT”, respectively.

The record behind these values is article PMC3808535, “Pannexin1 Channel Proteins in the Zebrafish Retina Have Shared and Unique Properties” (PLoS ONE, 2013).
